Assays:
FLT3 kinase = FLT3 kinase (Homo sapiens (Human), UniProt P36888); assay: Competition binding assay (Kd), FLT3
KIT kinase = KIT kinase (Homo sapiens (Human), UniProt P10721); assay: Competition binding assay (Kd), KIT
Method: In certain embodiments, competition binding assays were performed as described in Fabian et al., Nature Biotechnology 2005, 23, 329-336.
Competition binding assays used herein were developed, validated and performed as described in Fabian et al., Nature Biotechnology 2005, 23, 329-336. Kinases were produced as fusions to T7 phage (See, Fabian et al. or WO04/015142) or alternatively, the kinases were expressed in HEK-293 cells and subsequently tagged with DNA for PCR detection (See, WO08/005,310). […] The liganded beads were blocked with excess biotin and washed with blocking buffer (SeaBlock (Pierce), 1% BSA, 0.05% Tween 20, 1 mM DTT) to remove unbound ligand and to reduce non-specific binding. […] Test compounds were prepared as 100× stocks in DMSO and diluted into the aqueous environment. Kds were determined using an eleven point threefold serial dilutions. DMSO or control compounds were was added to control assays lacking a test compound. […] The kinase concentration in the eluates was measured by quantitative PCR. […]

Sequence of FLT3 kinase (P36888 27-993): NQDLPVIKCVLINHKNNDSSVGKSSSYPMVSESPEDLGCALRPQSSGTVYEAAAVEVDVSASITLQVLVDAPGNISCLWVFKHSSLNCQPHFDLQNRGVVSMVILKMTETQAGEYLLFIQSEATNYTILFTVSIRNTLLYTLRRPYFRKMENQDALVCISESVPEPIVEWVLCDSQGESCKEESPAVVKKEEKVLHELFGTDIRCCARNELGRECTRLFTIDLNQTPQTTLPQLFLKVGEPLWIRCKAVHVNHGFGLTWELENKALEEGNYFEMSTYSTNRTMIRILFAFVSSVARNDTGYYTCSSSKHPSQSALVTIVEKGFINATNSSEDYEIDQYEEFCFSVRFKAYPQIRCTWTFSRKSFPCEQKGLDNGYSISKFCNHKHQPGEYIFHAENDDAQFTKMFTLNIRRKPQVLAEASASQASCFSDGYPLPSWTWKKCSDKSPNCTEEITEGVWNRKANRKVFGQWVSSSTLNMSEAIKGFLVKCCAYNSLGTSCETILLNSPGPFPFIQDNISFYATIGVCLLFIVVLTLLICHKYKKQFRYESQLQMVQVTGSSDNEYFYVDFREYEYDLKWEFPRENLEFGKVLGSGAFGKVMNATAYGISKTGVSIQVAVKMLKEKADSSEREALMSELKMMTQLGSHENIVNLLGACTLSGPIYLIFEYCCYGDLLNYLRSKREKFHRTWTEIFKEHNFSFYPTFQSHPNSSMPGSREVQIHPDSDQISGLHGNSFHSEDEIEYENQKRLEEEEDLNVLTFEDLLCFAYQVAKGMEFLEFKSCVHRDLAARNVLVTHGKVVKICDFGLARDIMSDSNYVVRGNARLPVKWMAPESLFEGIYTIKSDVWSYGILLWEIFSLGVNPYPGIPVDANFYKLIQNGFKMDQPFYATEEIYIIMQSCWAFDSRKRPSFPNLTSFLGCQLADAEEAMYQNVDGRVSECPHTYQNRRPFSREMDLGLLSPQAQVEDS
Sequence of KIT kinase (P10721 26-976): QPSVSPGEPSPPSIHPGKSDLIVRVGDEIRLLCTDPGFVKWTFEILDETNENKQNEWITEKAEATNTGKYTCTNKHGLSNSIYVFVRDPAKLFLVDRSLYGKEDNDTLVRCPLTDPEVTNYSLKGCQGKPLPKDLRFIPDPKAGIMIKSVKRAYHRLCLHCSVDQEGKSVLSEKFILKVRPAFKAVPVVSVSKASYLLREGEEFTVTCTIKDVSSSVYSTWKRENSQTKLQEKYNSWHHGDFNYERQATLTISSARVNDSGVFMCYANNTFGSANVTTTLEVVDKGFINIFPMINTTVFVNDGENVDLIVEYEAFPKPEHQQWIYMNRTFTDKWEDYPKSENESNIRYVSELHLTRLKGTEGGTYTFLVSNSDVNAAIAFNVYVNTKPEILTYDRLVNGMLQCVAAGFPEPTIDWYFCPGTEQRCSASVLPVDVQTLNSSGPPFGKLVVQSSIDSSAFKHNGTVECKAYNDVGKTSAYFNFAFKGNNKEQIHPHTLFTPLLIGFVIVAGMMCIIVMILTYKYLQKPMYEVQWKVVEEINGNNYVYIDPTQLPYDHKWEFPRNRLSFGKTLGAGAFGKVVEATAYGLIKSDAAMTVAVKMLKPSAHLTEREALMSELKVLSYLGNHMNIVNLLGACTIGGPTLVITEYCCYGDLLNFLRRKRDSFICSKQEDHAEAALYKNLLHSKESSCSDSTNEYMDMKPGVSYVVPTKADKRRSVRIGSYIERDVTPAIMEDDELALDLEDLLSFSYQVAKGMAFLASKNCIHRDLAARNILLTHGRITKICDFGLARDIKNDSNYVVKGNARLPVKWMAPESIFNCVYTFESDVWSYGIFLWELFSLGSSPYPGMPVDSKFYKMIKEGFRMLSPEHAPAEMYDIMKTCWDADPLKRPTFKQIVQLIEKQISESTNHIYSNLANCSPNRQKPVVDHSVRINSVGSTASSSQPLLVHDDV

SMILES	Kd (FLT3 kinase; competition binding assay)	Kd (KIT kinase; competition binding assay)	Kd (FLT3 kinase; competition binding)	Kd (KIT kinase; competition binding)
COc1cc2ncc(-c3ccc(CC(=O)Nc4cc(C5(C(F)(F)F)CC5)n[nH]4)c(F)c3)nc2cc1OC [Example 180, 2-[4-(6,7-dimethoxyquinoxalin-2-yl)-2-fluoro-phenyl]-N-[3-[1-(trifluoromethyl)cyclo-propyl]-1H-pyrazol-5-yl]acetamide]	< 5 nM	< 5 nM		
COc1cc2ncc(-c3ccc(CC(=O)Nc4cc(C(C)(C)C(F)(F)F)nn4C)c(F)c3)nc2cc1OC [Example 181, 2-[4-(6,7-dimethoxyquinoxalin-2-yl)-2-fluoro-phenyl]-N-[2-methyl-5-(2,2,2-trifluoro-1,1-dimethyl-ethyl)pyrazol-3-yl]acetamide]	< 5 nM	< 5 nM		
COc1cc2ncc(-c3ccc(CC(=O)Nc4cc(C(C)(C)C(F)(F)F)n[nH]4)c(F)c3)nc2cc1OC [Example 182, 2-[4-(6,7-dimethoxyquinoxalin-2-yl)-2-fluoro-phenyl]-N-[3-(2,2,2-trifluoro-1,1-dimethyl-ethyl)-1H-pyrazol-5-yl]acetamide]	< 5 nM	< 5 nM		
COc1cc2nc(-c3ccc(CC(=O)Nc4cc(C5(C(F)(F)F)CC5)on4)c(F)c3)cnc2cc1OCC#N [Example 183, 2-[4-[6-(cyanomethoxy)-7-methoxy-quinoxalin-2-yl]-2-fluoro-phenyl]-N-[5-[1-(trifluoromethyl)cyclo-propyl]isoxazol-3-yl]acetamide]	< 5 nM	< 5 nM		
COc1cc2ncc(-c3ccc(CC(=O)Nc4cc(C(C)(C)C(F)(F)F)on4)c(F)c3)nc2cc1O [Example 184, 2-[2-fluoro-4-(7-hydroxy-6-methoxy-quinoxalin-2-yl)phenyl]-N-[5-(2,2,2-trifluoro-1,1-dimethyl-ethyl)isoxazol-3-yl]acetamide]	< 5 nM	< 5 nM		
COc1cc2nc(-c3ccc(CC(=O)Nc4cc(C5(C(F)(F)F)CC5)on4)c(F)c3)cnc2cc1OCCn1cncn1 [Example 185, 2-[2-fluoro-4-[7-methoxy-6-[2-(1,2,4-triazol-1-yl)ethoxy]quinoxalin-2-yl]phenyl]-N-[5-[1-(trifluoro-methyl)cyclopropyl]isoxazol-3-yl]acetamide]			< 5 nM	< 5 nM
COc1cc2nc(-c3ccc(CC(=O)Nc4cc(C5(C(F)(F)F)CC5)on4)c(F)c3)cnc2cc1OCC(=O)N(C)C [Example 186, 2-[4-[6-[2-(dimethylamino)-2-oxo-ethoxy]-7-methoxy-quinoxalin-2-yl]-2-fluoro-phenyl]-N-[5-[1-(trifluoro-methyl)cyclopropyl]isoxazol-3-yl]acetamide]			< 5 nM	< 5 nM
COc1cc2ncc(-c3ccc(CC(=O)Nc4cc(C(C)(C)C(F)(F)F)on4)c(F)c3)nc2cc1OCCN1CCOCC1 [Example 187, 2-[2-fluoro-4-[6-methoxy-7-(2-morpholino-ethoxy)quinoxalin-2-yl]phenyl]-N-[5-(2,2,2-trifluoro-1,1-dimethyl-ethyl)isoxazol-3-yl]acetamide]			< 5 nM	< 5 nM
COCCOc1cc2cc(-c3ccc(CC(=O)Nc4cc(C5(C(F)(F)F)CC5)on4)c(F)c3)cnc2cc1OC [Example 188, 2-[2-fluoro-4-[7-methoxy-6-(2-methoxyethoxy)-3-quinolyl]phenyl]-N-[5-[1-(trifluoromethyl)cyclo-propyl]isoxazol-3-yl]acetamide]			< 5 nM	< 5 nM
COc1cc2ncc(-c3ccc(CC(=O)Nc4cc(C(C)(C)C(F)(F)F)on4)c(F)c3)cc2cc1OCCN1CCOCC1 [Example 189, 2-[2-fluoro-4-[7-methoxy-6-(2-morpholinoethoxy)-3-quinolyl]phenyl]-N-[5-(2,2,2-trifluoro-1,1-dimethyl-ethyl)isoxazol-3-yl]acetamide]			< 5 nM	< 5 nM
COc1cc2ncc(-c3ccc(CC(=O)Nc4cc(C5(C(F)(F)F)CC5)on4)c(F)c3)cc2cc1OCCN1CCOCC1 [Example 190, 2-[2-fluoro-4-[7-methoxy-6-(2-morpholinoethoxy)-3-quinolyl]phenyl]-N-[5-[1-(trifluoromethyl)cyclo-propyl]isoxazol-3-yl]acetamide]			< 5 nM	< 5 nM
COc1cc2ncc(-c3ccc(CC(=O)Nc4cc(C(C)(C)C(F)(F)F)on4)c(F)c3)nc2cc1OCCN1CC[C@H](O)C1 [Example 191, 2-[2-fluoro-4-[7-[2-[(3S)-3-hydroxypyrrolidin-1-yl]ethoxy]-6-methoxy-quinoxalin-2-yl]phenyl]-N-[5-(2,2,2-trifluoro-1,1-dimethyl-ethyl)isoxazol-3-yl]acetamide]			< 5 nM	< 5 nM
COc1cc2ncc(-c3ccc(CC(=O)Nc4cc(C5(C(F)(F)F)CC5)on4)c(F)c3)cc2cc1OCCN [Example 192, 2-[4-[6-(2-aminoethoxy)-7-methoxy-3-quinolyl]-2-fluoro-phenyl]-N-[5-[1-(trifluoromethyl)cyclo-propyl]isoxazol-3-yl]acetamide]			< 5 nM	< 5 nM
COc1cc2ncc(-c3ccc(CC(=O)Nc4cc(C5(C(F)(F)F)CC5)on4)c(F)c3)cc2cc1OCCNC(C)=O [Example 193, 2-[4-[6-(2-acetamidoethoxy)-7-methoxy-3-quinolyl]-2-fluoro-phenyl]-N-[5-[1-(trifluoromethyl)cyclo-propyl]isoxazol-3-yl]acetamide]			< 5 nM	< 5 nM
COc1cc2ncc(-c3ccc(CC(=O)Nc4cc5n(n4)CCC5(C)C)c(F)c3)nc2cc1OC [Example 194, 2-[4-(6,7-dimethoxyquinoxalin-2-yl)-2-fluoro-phenyl]-N-(4,4-dimethyl-5,6-dihydropyrrolo[1,2-b]pyrazol-2-yl)acetamide]			< 5 nM	< 5 nM
COc1cc2nc(-c3ccc(CC(=O)Nc4cc(C5(C(F)(F)F)CC5)on4)c(F)c3)cnc2cc1OCCCO [Example 195, 2-[2-fluoro-4-[6-(3-hydroxypropoxy)-7-methoxy-quinoxalin-2-yl]phenyl]-N-[5-[1-(trifluoromethyl)cyclo-propyl]isoxazol-3-yl]acetamide]			< 5 nM	< 5 nM
CNCCOc1cc2nc(-c3ccc(CC(=O)Nc4cc(C(C)(C)C(F)(F)F)on4)c(F)c3)cnc2cc1OC [Example 196, 2-[2-fluoro-4-[6-methoxy-7-[2-(methyl-amino)ethoxy]quinoxalin-2-yl]phenyl]-N-[5-(2,2,2-trifluoro-1,1-dimethyl-ethyl)isoxazol-3-yl]acetamide]			< 5 nM	< 5 nM
COc1cc2cc(-c3ccc(CC(=O)Nc4cc(C(C)(C)C(F)(F)F)on4)c(F)c3)cnc2cc1OCCN1CCOCC1 [Example 197, 2-[2-fluoro-4-[6-methoxy-7-(2-morpholinoethoxy)-3-quinolyl]phenyl]-N-[5-(2,2,2-trifluoro-1,1-dimethyl-ethyl)isoxazol-3-yl]acetamide]			< 5 nM	< 5 nM
COc1cc2ncc(-c3ccc(CC(=O)Nc4cc(C(C)(C)C(F)(F)F)on4)c(F)c3)nc2cc1OCCN(C)C(C)=O [Example 198, 2-[4-[7-[2-[acetyl(methyl)amino]ethoxy]-6-methoxy-quinoxalin-2-yl]-2-fluoro-phenyl]-N-[5-(2,2,2-trifluoro-1,1-dimethyl-ethyl)isoxazol-3-yl]acetamide]			< 5 nM	< 5 nM
COc1cc2cc(-c3ccc(CC(=O)Nc4cc(C(C)(C)C(F)(F)F)on4)c(F)c3)cnc2cc1OCCN1CC[C@@H](O)C1 [Example 199, 2-[2-fluoro-4-[7-[2-[(3R)-3-hydroxypyrrolidin-1-yl]ethoxy]-6-methoxy-3-quinolyl]phenyl]-N-[5-(2,2,2-trifluoro-1,1-dimethyl-ethyl)isoxazol-3-yl]acetamide]			< 5 nM	< 5 nM
COc1cc2cc(-c3ccc(CC(=O)Nc4cc(C(C)(C)C(F)(F)F)on4)c(F)c3)cnc2cc1OCCN(C)CCO [Example 200, 2-[2-fluoro-4-[7-[2-[2-hydroxy-ethyl(methyl)amino]ethoxy]-6-methoxy-3-quinolyl]phenyl]-N-[5-(2,2,2-trifluoro-1,1-dimethyl-ethyl)isoxazol-3-yl]acetamide]			< 5 nM	< 5 nM
COc1cc2cc(-c3ccc(CC(=O)Nc4cc(C(C)(C)C(F)(F)F)on4)c(F)c3)cnc2cc1OCCNCCO [Example 201, 2-[2-fluoro-4-[7-[2-(2-hydroxyethylamino)ethoxy]-6-methoxy-3-quinolyl]phenyl]-N-[5-(2,2,2-trifluoro-1,1-dimethyl-ethyl)isoxazol-3-yl]acetamide]			< 5 nM	< 5 nM
COc1cc2ncc(-c3ccc(CC(=O)Nc4cc(C5(C(F)(F)F)CC5)on4)c(F)c3)nc2cc1OC[C@@H](C)O [Example 202, 2-[2-fluoro-4-[7-[(2R)-2-hydroxypropoxy]-6-methoxy-quinoxalin-2-yl]phenyl]-N-[5-[1-(trifluoromethyl)cyclo-propyl]isoxazol-3-yl]acetamide]			< 5 nM	< 5 nM
COc1cc2ncc(-c3ccc(CC(=O)Nc4cc(C(C)(C)C(F)(F)F)on4)c(F)c3)nc2cc1OCCCN1CCOCC1 [Example 203, 2-[2-fluoro-4-[6-methoxy-7-(3-morpholino-propoxy)quinoxalin-2-yl]phenyl]-N-[5-(2,2,2-trifluoro-1,1-dimethyl-ethyl)isoxazol-3-yl]acetamide]			< 5 nM	< 5 nM
COc1cc2ncc(-c3ccc(CC(=O)Nc4cc(C(C)(C)C(F)(F)F)on4)c(F)c3)cc2cc1OCCN [Example 204, 2-[4-[6-(2-aminoethoxy)-7-methoxy-3-quinolyl]-2-fluoro-phenyl]-N-[5-(2,2,2-trifluoro-1,1-dimethyl-ethyl)isoxazol-3-yl]acetamide]			< 5 nM	< 5 nM

Source: patent publication US9725465B2, “Biaryl acetamide compounds and methods of use thereof” (Ambit Biosciences Corporation, priority 2013, dated 2017)
